The target in this assay is T1, truncated human beta-secretase (residues 1-458, His6-tagged at the C-terminus) (Homo sapiens, UniProt P56817).
T1 construct: truncated human beta-secretase (residues 1-458, His6-tagged at the C-terminus); His6 (C); made in house; host or cells: insect cells D. melanogaster S2 (baculovirus expression system (so in the source))
The assay is described as follows: BACE fluorescence quench assay. The class given is biochemical. Conditions: in vitro enzyme activity, BACE fluorescence assay, pH 4.5; read-out: IC50.

T1 sequence (P56817 22-458): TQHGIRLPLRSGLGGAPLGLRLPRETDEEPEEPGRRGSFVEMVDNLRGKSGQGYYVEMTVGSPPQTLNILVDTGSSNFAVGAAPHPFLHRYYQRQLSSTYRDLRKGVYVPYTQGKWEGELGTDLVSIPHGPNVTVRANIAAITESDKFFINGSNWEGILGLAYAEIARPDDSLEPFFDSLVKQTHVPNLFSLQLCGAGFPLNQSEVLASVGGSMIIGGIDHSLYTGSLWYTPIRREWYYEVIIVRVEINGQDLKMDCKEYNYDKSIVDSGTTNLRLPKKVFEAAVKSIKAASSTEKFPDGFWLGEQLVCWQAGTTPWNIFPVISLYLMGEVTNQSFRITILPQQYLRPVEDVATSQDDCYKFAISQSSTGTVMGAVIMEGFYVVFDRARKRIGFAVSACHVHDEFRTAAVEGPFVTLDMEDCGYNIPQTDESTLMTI

Consider `CC(=O)N1CCC2(CC1)CC1(N=C(N)N(C)O1)c1cc(-c3cccc(C#N)c3)ccc1O2` (stereo not drawn) [Compound 409, 3-(spiro[spiro(chroman-2,4′-(1-acetylpiperidine))-4,5′-(3-amino-2-methyl-2H-[1,2,4]oxadiazole)]-6-yl)benzonitrile], for which the concentration for half-maximal inhibition (IC50) is 1 to 5 µM.
Under `CN1C(=O)[C@@]2(C[C@]3(CCCOC3)Oc3ccc(-c4cccc(C#N)n4)cc32)N=C1N` [Compound 410] stands 1 to 5 µM; under `CN1C(=O)[C@@]2(C[C@]3(CCCOC3)Oc3ccc(-c4ccco4)cc32)N=C1N` [Compound 411], 1 to 5 µM; under `CC(C)=CC(CCO)C1CC2(N=C(N)N(C)O2)c2cc(-c3cccc(Cl)c3)ccc2O1` (stereo not drawn) [Compound 412], 1 to 5 µM.
Under `Cc1ccc(C#N)cc1-c1ccc2c(c1)[C@]1(C[C@@]3(CCCOC3)O2)N=C(N)N(C)C1=O` [Compound 413] stands 1 to 5 µM.
Under `Cc1ccc(-c2ccc3c(c2)C2(CC4(CCCOC4)O3)N=C(N)N(C)C2=O)s1` (stereo not drawn) [Compound 414] stands 1 to 5 µM; under `CN1OC2(CC3(CCCC(c4ccccc4)C3)Oc3ccc(-c4cccc(C#N)c4)cc32)N=C1N` (stereo not drawn) [Compound 415], 1 to 5 µM; under `CN1OC2(C[C@@]3(CCCC4CCCCC43)Oc3ccc(-c4cccc(C#N)c4)cc32)N=C1N` (stereo partly drawn) [Compound 416], 1 to 5 µM.
For `CN1C(=O)C2(CC(C3CCOC(C)(C)C3)Oc3ccc(-c4cc(F)cc(Cl)c4)cc32)N=C1N` (stereo not drawn) [Compound 417], the concentration for half-maximal inhibition (IC50) lay within 1 to 5 µM.
Under `CC(C)=C[C@H](CCO)[C@@H]1C[C@@]2(N=C(N)N(C)O2)c2cc(-c3cc(F)cc(F)c3)ccc2O1` [Compound 419] stands 1 to 5 µM; under `CC(C)=CC(CCO)[C@H]1C[C@@]2(N=C(N)N(C)O2)c2cc(-c3cc(F)cc(F)c3F)ccc2O1` (stereo partly drawn) [Compound 420], 1 to 5 µM.
In the case of `CC(C)=CC(CCO)[C@H]1C[C@@]2(N=C(N)N(C)O2)c2cc(-c3cc(F)cc(F)c3)ccc2O1` (stereo partly drawn) [Compound 421], the 50% inhibitory concentration (IC50) was 1 to 5 µM.
For `CN1OC2(CC(C3COc4ccccc4C3)Oc3ccc(-c4cccc(C#N)c4)cc32)N=C1N` (stereo not drawn) [Compound 422] the value was 1 to 5 µM; for `CC(C)=C[C@H](CCO)[C@@H]1C[C@@]2(N=C(N)N(C)O2)c2cc(-c3cccc(C(F)(F)F)c3)ccc2O1` [Compound 423], 1 to 5 µM; for `CN1C(=O)[C@@]2(C[C@]3(CCCOC3)Oc3ccc(-c4cccc(-n5cccc5)n4)cc32)N=C1N` [Compound 424], 1 to 5 µM.
Under `CC(C)=CC(CCO)C1CC2(N=C(N)N(C)O2)c2cc(-c3cc(C#N)ccc3C)ccc2O1` (stereo not drawn) [Compound 425] stands 1 to 5 µM; under `CN1C(=O)[C@@]2(C[C@]3(CCCOC3)Oc3ccc(-c4cccc(Cl)n4)cc32)N=C1N` [Compound 426], 1 to 5 µM.
For `CC(=O)c1cccc(-c2ccc3c(c2)[C@]2(C[C@@]4(CCCOC4)O3)N=C(N)N(C)C2=O)c1` [Compound 427] the value was 1 to 5 µM; for `COc1ccc(-c2ccc3c(c2)[C@]2(C[C@]4(CCCOC4)O3)N=C(N)N(C)C2=O)cc1OC` [Compound 428], 1 to 5 µM; for `CCOC(=O)c1cccc(-c2ccc3c(c2)[C@]2(C[C@@]4(CCCOC4)O3)N=C(N)N(C)C2=O)c1` [Compound 429], 1 to 5 µM.
As to `CC(C)=CC(CCO)C1CC2(N=C(N)N(C)O2)c2cc(-c3cccc(C#N)c3F)ccc2O1` (stereo not drawn) [Compound 430], the IC50 fell in the range of 1 to 5 µM.
Under `CN1C(=O)C2(CC(C3CCOC(C)(C)C3)Oc3ccc(-c4ccc(F)c(F)c4)cc32)N=C1N` (stereo not drawn) [Compound 431] stands 1 to 5 µM; under `CN1C(=O)[C@@]2(C[C@]3(CCCOC3)Oc3ccc(-c4ccc5cn[nH]c5c4)cc32)N=C1N` [Compound 433], 5 to 10 µM.
Under `CC(C)=CC(CCO)C1CC2(N=C(N)N(C)O2)c2cc(-c3cc(F)ccc3F)ccc2O1` (stereo not drawn) [Compound 434] stands 5 to 10 µM.
Turning to `CN1C(=O)[C@@]2(C[C@@]3(CCCOC3)Oc3ccc(-c4cc(CO)ccc4F)cc32)N=C1N` [Compound 435], the IC50 fell in the range of 5 to 10 µM.
For `CC(C)=CC(CCO)C1CC2(N=C(N)N(C)O2)c2cc(-c3cccc(F)c3)ccc2O1` (stereo not drawn) [Compound 436], the IC50 was 5 to 10 µM.
As to `Cc1ccc(C#N)cc1-c1ccc2c(c1)[C@]1(C[C@@H](C3CCOC(C)(C)C3)O2)N=C(N)N(C)C1=O` (stereo partly drawn) [Compound 437], the concentration for half-maximal inhibition (IC50) fell in the range of 5 to 10 µM.
For `CN1OC2(CC3(CCS(=O)(=O)CC3)Oc3ccc(-c4cccc(C#N)c4)cc32)N=C1N` (stereo not drawn) [Compound 438] the value was 5 to 10 µM.
`CN1C(=O)C2(CC3(CCCOC3)Oc3ccc(-c4cccc(-n5ccnc5)n4)cc32)N=C1N` (stereo not drawn) [Compound 439]: the IC50 fell in the range of 5 to 10 µM.
On to `Cc1cccc(-c2ccc3c(c2)[C@]2(C[C@@]4(CCCOC4)O3)N=C(N)N(C)C2=O)c1C` [Compound 440], for which the half-maximal inhibitory concentration (IC50) lay in the range of 5 to 10 µM.
Under `CC(C)=C[C@H](CCO)[C@@H]1C[C@@]2(N=C(N)N(C)O2)c2cc(-c3cc(F)cc(F)c3F)ccc2O1` [Compound 441] stands 5 to 10 µM; under `CC(C)=CC(CCO)[C@H]1C[C@@]2(N=C(N)N(C)O2)c2cc(-c3cccc(C(F)(F)F)c3)ccc2O1` (stereo partly drawn) [Compound 442], 5 to 10 µM.
Under `CN1OC2(CC3(CCCC4CCCCC43)Oc3ccc(-c4cccc(C#N)c4)cc32)N=C1N` (stereo not drawn) [Compound 443] stands 5 to 10 µM.
Under `CC(C)=CC(CCO)[C@@H]1C[C@@]2(N=C(N)N(C)O2)c2cc(-c3cc(F)cc(F)c3)ccc2O1` (stereo partly drawn) [Compound 444] stands 5 to 10 µM; under `CN1OC2(CC(C3CCOC(C)(C)C3)Oc3ccc(-c4cccc(-n5cccc5)n4)cc32)N=C1N` (stereo not drawn) [Compound 445], 5 to 10 µM.
Take `CN1C(=O)[C@@]2(C[C@@]3(CCCOC3)Oc3ccc(-c4cccc(C#N)n4)cc32)N=C1N` [Compound 446]: the IC50 fell in the range of 5 to 10 µM.
Under `CN1C(=O)[C@@]2(C[C@@]3(CCCOC3)Oc3ccc(-c4cccc(Cl)n4)cc32)N=C1N` [Compound 447] stands 5 to 10 µM.
For `CN1C(=O)[C@@]2(C[C@@]3(CCCOC3)Oc3ccc(-c4ccco4)cc32)N=C1N` [Compound 448] the value was 10 to 50 µM.
On to `CN1C(=O)[C@@]2(C[C@@]3(CCCOC3)Oc3ccc(-c4cc(C#N)ccc4C(F)(F)F)cc32)N=C1N` [Compound 449], for which the IC50 was 10 to 50 µM.
Under `CC(C)=CC(CCO)[C@@H]1C[C@@]2(N=C(N)N(C)O2)c2cc(-c3cccc(C(F)(F)F)c3)ccc2O1` (stereo partly drawn) [Compound 450] stands 10 to 50 µM; under `CN1OC2(CC3(CCc4ccccc4CC3)Oc3ccc(-c4cccc(C#N)c4)cc32)N=C1N` (stereo not drawn) [Compound 451], 10 to 50 µM.
For `CN1C(=O)C2(CC(C3CCOC(C)(C)C3)Oc3ccc(-c4cccc(F)c4)cc32)N=C1N` (stereo not drawn) [Compound 452] the value was 10 to 50 µM; for `CN1C(=O)C2(C[C@H]([C@@H]3CCOC(C)(C)C3)Oc3ccc(-c4cccc(C#N)c4)cc32)N=C1N` (stereo partly drawn) [Compound 453], 10 to 50 µM.
For `CN1OC2(CC3(CCCOC3)Oc3ccc(C#Cc4ccccc4)cc32)N=C1N` (stereo not drawn) [Compound 454, 2″-methyl-6-(phenylethynyl)-2″H-spiro[spiro[chroman-2,1′-(3-oxacyclohexane)]-4,5′-[1,2,4]oxadiazol]-3″-amine] the value was 10 to 50 µM.
`CN1OCC2(CC3(CCCOC3)Oc3ccc(-c4cccc(C#N)c4)cc32)N=C1N` (stereo not drawn) [Compound 455, 3-(spiro[spiro[chroman-2,1′-(3-oxacyclohexane)]-4,5′-(3-amino-2-methyl-2,6-dihydro-[1,2,4]oxadiazine)]-6-yl)benzonitrile]: the IC50 is 10 to 50 µM.
Under `CC(C)=CC(CCO)C1CC2(N=C(N)N(C)O2)c2cc(-c3ccc(F)c(F)c3)ccc2O1` (stereo not drawn) [Compound 456] stands 10 to 50 µM.
Consider `CN1C(=O)[C@@]2(C[C@@]3(CCCOC3)Oc3ccc(-c4ccc5cn[nH]c5c4)cc32)N=C1N` [Compound 457], for which the IC50 lay in the range of 10 to 50 µM.
Under `COc1ccc(-c2ccc3c(c2)[C@]2(C[C@@]4(CCCOC4)O3)N=C(N)N(C)C2=O)cc1OC` [Compound 458] stands 10 to 50 µM.
